Numbered stars: 1 amine (or outer) side, 2 acyl side, 3 side chain; on linkers, the order of the positions; unused ones are H or OH. Square brackets hold non-standard residues; d marks the D form. Side chains are listed from the residue outwards. Peptide text beside a SMILES is read from it. * marks the point of attachment. Phe(4-CH2SO3H) = N[C@@H](Cc1ccc(CS(=O)(=O)O)cc1)C(=O)O; sY = N[C@@H](Cc1ccc(OS(=O)(=O)O)cc1)C(=O)O; C18 diacid = O=C(O)CCCCCCCCCCCCCCCCC(=O)*; NMe1Nal = CN[C@@H](Cc1cccc2ccccc12)C(=O)O; γGlu = O=C(O)[C@H](CCC(=O)[*:2])N[*:1]; 1Nal = N[C@@H](Cc1cccc2ccccc12)C(=O)O; Hyp = O=C(O)[C@@H]1C[C@@H](O)CN1; NMeF = CN[C@@H](Cc1ccccc1)C(=O)O; NMeD = CN[C@@H](CC(=O)O)C(=O)O; NH(2-Me-phenyl) = Cc1ccccc1N*; Nle = CCCC[C@H](N)C(=O)O; AEEA = NCCOCCOCC(=O)O; CO = O=C([*:1])[*:2]; βAla = NCCC(=O)O
Legend:
[1] = target: T1, Gastrin/cholecystokinin type B receptor (Homo sapiens, UniProt P32239); assay: Agonist activity at human CCK2R expressed in human 1321N1 cells assessed as IP1 accumulation after 1 hr by HTRF assay; format: functional, cell-based
T1 sequence (P32239 whole entry): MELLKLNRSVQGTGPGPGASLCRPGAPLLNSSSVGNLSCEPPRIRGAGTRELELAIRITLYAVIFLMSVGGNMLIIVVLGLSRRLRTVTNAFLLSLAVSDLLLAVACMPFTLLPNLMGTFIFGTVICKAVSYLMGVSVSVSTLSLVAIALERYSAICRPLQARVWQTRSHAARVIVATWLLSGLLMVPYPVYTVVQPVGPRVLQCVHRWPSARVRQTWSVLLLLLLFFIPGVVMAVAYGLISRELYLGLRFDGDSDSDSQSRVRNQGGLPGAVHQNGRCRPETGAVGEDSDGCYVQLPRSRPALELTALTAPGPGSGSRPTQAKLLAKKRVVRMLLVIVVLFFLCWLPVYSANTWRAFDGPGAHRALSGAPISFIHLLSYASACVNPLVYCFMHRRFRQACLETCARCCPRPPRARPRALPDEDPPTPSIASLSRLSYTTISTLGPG

[2] = target: T2, Cholecystokinin receptor type A (Homo sapiens, UniProt P32238); assay: Agonist activity at human CCK1R expressed in human 1321N1 cells assessed as IP1 accumulation after 1 hr by HTRF assay; format: functional, cell-based
T2 sequence (P32238 whole entry): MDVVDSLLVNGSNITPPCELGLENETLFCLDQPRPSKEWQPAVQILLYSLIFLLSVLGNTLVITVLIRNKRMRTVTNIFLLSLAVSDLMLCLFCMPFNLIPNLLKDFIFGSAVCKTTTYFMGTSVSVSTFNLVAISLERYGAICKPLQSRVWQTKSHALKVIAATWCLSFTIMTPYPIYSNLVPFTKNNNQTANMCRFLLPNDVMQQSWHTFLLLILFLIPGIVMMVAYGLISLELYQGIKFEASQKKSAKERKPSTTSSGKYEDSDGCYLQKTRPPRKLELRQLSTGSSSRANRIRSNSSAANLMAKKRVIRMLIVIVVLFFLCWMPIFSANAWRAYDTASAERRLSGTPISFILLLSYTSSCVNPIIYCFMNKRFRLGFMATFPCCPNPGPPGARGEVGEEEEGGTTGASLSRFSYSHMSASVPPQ

[3] = target: T1, Gastrin/cholecystokinin type B receptor; assay: Displacement of [125I]-CCK-8 from human CCK2R expressed in human 1321N1 cell membranes after 2 hrs by SPA assay
[4] = target: T2, Cholecystokinin receptor type A; assay: Displacement of [125I]-CCK-8 from human CCK1R expressed in human 1321N1 cell membranes after 2 hrs by SPA assay

| Structure (SMILES) | EC50 [1] [nM] | EC50 [2] [nM] | IC50 [3] [nM] | IC50 [4] [nM] | pEC50 [1] | pEC50 [2] | pIC50 [3] | pIC50 [4] |
| --- | --- | --- | --- | --- | --- | --- | --- | --- |
| CCCC[C@H](NC(=O)[C@H](Cc1c[nH]c2ccccc12)NC(=O)[C@H](CCC(=O)O)NC(=O)[C@H](CCCC)NC(=O)[C@H](Cc1ccc(OS(=O)(=O)O)cc1)NC(=O)[C@H](CC(=O)O)NC(=O)COCCOCCNC(=O)COCCOCCNC(=O)CC[C@H](NC(=O)CCCCCCCCCCCCCCCCC(=O)O)C(=O)O)C(=O)N[C@@H](CC(=O)O)C(=O)N[C@@H](Cc1ccccc1)C(N)=O ({C18 diacid-γGlu-AEEA-AEEA}-D[sY][Nle]EW[Nle]DF-NH2) | 0.437 | > 1000 | 0.151 | 3980 |  |  |  |  |
| CCCC[C@H](NC(=O)[C@H](Cc1ccc(OS(=O)(=O)O)cc1)NC(=O)[C@H](CC(=O)O)NC(=O)COCCOCCNC(=O)COCCOCCNC(=O)CC[C@H](NC(=O)CCCCCCCCCCCCCCCCC(=O)O)C(=O)O)C(=O)NCC(=O)N[C@@H](Cc1c[nH]c2ccccc12)C(=O)N[C@@H](CCCC)C(=O)N[C@@H](CC(=O)O)C(=O)N[C@@H](Cc1c[nH]c2ccccc12)C(N)=O ({C18 diacid-γGlu-AEEA-AEEA}-D[sY][Nle]GW[Nle]DW-NH2) | 0.417 | 0.324 | 0.132 | 2.24 |  |  |  |  |
| CCCC[C@H](NC(=O)[C@H](Cc1ccc(OS(=O)(=O)O)cc1)NC(=O)[C@H](CC(=O)O)NC(=O)COCCOCCNC(=O)COCCOCCNC(=O)CC[C@H](NC(=O)CCCCCCCCCCCCCCCCC(=O)O)C(=O)O)C(=O)NCC(=O)N[C@@H](Cc1c[nH]c2ccccc12)C(=O)N[C@@H](CCCC)C(=O)N[C@@H](CC(=O)O)C(=O)N[C@@H](Cc1ccc(O)cc1)C(N)=O ({C18 diacid-γGlu-AEEA-AEEA}-D[sY][Nle]GW[Nle]DY-NH2) | 0.324 | 0.977 | 0.132 | 9.12 |  |  |  |  |
| CCCC[C@H](NC(=O)[C@H](Cc1ccc(OS(=O)(=O)O)cc1)NC(=O)[C@H](CC(=O)O)NC(=O)COCCOCCNC(=O)COCCOCCNC(=O)CC[C@H](NC(=O)CCCCCCCCCCCCCCCCC(=O)O)C(=O)O)C(=O)NCC(=O)N[C@@H](Cc1c[nH]c2ccccc12)C(=O)N[C@@H](CCCC)C(=O)N[C@@H](CC(=O)O)C(=O)N[C@@H](Cc1cccc2ccccc12)C(N)=O ({C18 diacid-γGlu-AEEA-AEEA}-D[sY][Nle]GW[Nle]D[1Nal]-NH2) | 0.407 | 0.162 | 0.0933 | 0.0759 |  |  |  |  |
| CCCC[C@H](NC(=O)[C@H](Cc1ccc(OS(=O)(=O)O)cc1)NC(=O)[C@H](CC(=O)O)NC(=O)COCCOCCNC(=O)COCCOCCNC(=O)CC[C@H](NC(=O)CCCCCCCCCCCCCCCCC(=O)O)C(=O)O)C(=O)NCC(=O)N[C@@H](Cc1c[nH]c2ccccc12)C(=O)N[C@@H](CCCC)C(=O)N[C@@H](CC(N)=O)C(=O)N[C@@H](Cc1ccccc1)C(N)=O ({C18 diacid-γGlu-AEEA-AEEA}-D[sY][Nle]GW[Nle]NF-NH2) | 5.75 | 11.7 | 309 | 19.1 |  |  |  |  |
| CCCC[C@H](NC(=O)[C@H](Cc1ccc(OS(=O)(=O)O)cc1)NC(=O)[C@H](CC(=O)O)NC(=O)COCCOCCNC(=O)COCCOCCNC(=O)CC[C@H](NC(=O)CCCCCCCCCCCCCCCCC(=O)O)C(=O)O)C(=O)NCC(=O)N[C@@H](Cc1c[nH]c2ccccc12)C(=O)N[C@@H](CCCC)C(=O)N1C[C@H](O)C[C@H]1C(=O)N[C@@H](Cc1ccccc1)C(N)=O ({C18 diacid-γGlu-AEEA-AEEA}-D[sY][Nle]GW[Nle][Hyp]F-NH2) | 25.7 | 1.12 | 457 | 3.02 |  |  |  |  |

Results, then the compound that gave them:

| EC50 [1] [nM] | EC50 [2] [nM] | IC50 [3] [nM] | IC50 [4] [nM] | pEC50 [1] | pEC50 [2] | pIC50 [3] | pIC50 [4] | Structure (SMILES) |
| --- | --- | --- | --- | --- | --- | --- | --- | --- |
| 0.447 | 0.0676 | 0.891 | 0.245 |  |  |  |  | CCCC[C@H](NC(=O)[C@H](Cc1c[nH]c2ccccc12)NC(=O)CNC(=O)[C@H](CC(C)C)NC(=O)[C@H](Cc1ccc(CS(=O)(=O)O)cc1)NC(=O)[C@H](CC(=O)O)NC(=O)COCCOCCNC(=O)COCCOCCNC(=O)CC[C@H](NC(=O)CCCCCCCCCCCCCCCCC(=O)O)C(=O)O)C(=O)N[C@@H](CC(=O)O)C(=O)N[C@@H](Cc1ccccc1)C(N)=O ({C18 diacid-γGlu-AEEA-AEEA}-D[Phe(4-CH2SO3H)]LGW[Nle]DF-NH2) |
| 0.295 | 0.166 | 0.158 | 1.26 |  |  |  |  | CCCC[C@H](NC(=O)[C@H](Cc1c[nH]c2ccccc12)NC(=O)CNC(=O)[C@H](CCC(=O)O)NC(=O)[C@H](Cc1ccc(OS(=O)(=O)O)cc1)NC(=O)[C@H](CC(=O)O)NC(=O)COCCOCCNC(=O)COCCOCCNC(=O)CC[C@H](NC(=O)CCCCCCCCCCCCCCCCC(=O)O)C(=O)O)C(=O)N[C@@H](CC(=O)O)C(=O)N[C@@H](Cc1ccccc1)C(N)=O ({C18 diacid-γGlu-AEEA-AEEA}-D[sY]EGW[Nle]DF-NH2) |
|  |  |  |  | < 6 | 8.79 | < 5 | 7.79 | CC(C)C[C@H](NC(=O)[C@H](Cc1ccc(OS(=O)(=O)O)cc1)NC(=O)[C@H](CC(=O)O)NC(=O)COCCOCCNC(=O)COCCOCCNC(=O)CC[C@H](NC(=O)CCCCCCCCCCCCCCCCC(=O)O)C(=O)O)C(=O)NCC(=O)N[C@@H](Cc1c[nH]c2ccccc12)C(=O)N[C@@H](Cc1ccccc1)C(=O)N(C)[C@@H](CC(=O)O)C(=O)N(C)[C@@H](Cc1ccccc1)C(N)=O ({C18 diacid-γGlu-AEEA-AEEA}-D[sY]LGWF[NMeD][NMeF]-NH2) |
|  |  |  |  | < 6 | 6.61 | 5.27 | 7.39 | CCCC[C@H](NC(=O)[C@H](Cc1c[nH]c2ccccc12)NC(=O)CNC(=O)[C@H](CC(C)C)NC(=O)[C@H](Cc1ccc(OS(=O)(=O)O)cc1)NC(=O)[C@H](CC(=O)O)NC(=O)COCCOCCNC(=O)COCCOCCNC(=O)CC[C@H](NC(=O)CCCCCCCCCCCCCCCCC(=O)O)C(=O)O)C(=O)N1CCC[C@H]1C(=O)N(C)[C@@H](Cc1ccccc1)C(N)=O ({C18 diacid-γGlu-AEEA-AEEA}-D[sY]LGW[Nle]P[NMeF]-NH2) |
| 16.6 | 0.501 | 603 | 0.115 |  |  |  |  | CCCC[C@H](NC(=O)[C@H](Cc1c[nH]c2ccccc12)NC(=O)CNC(=O)[C@H](CC(C)C)NC(=O)[C@H](Cc1ccc(OS(=O)(=O)O)cc1)NC(=O)[C@H](CC(=O)O)NC(=O)COCCOCCNC(=O)COCCOCCNC(=O)CC[C@H](NC(=O)CCCCCCCCCCCCCCCCC(=O)O)C(=O)O)C(=O)N(C)[C@@H](CC(=O)O)C(=O)N(C)[C@@H](Cc1cccc2ccccc12)C(N)=O ({C18 diacid-γGlu-AEEA-AEEA}-D[sY]LGW[Nle][NMeD][NMe1Nal]-NH2) |
| 0.316 | 117 | 0.398 | 219 |  |  |  |  | CCCC[C@H](NC(=O)[C@H](Cc1c[nH]c2ccccc12)NC(=O)CCNC(=O)[C@H](CC(C)C)NC(=O)[C@H](Cc1ccc(OS(=O)(=O)O)cc1)NC(=O)[C@H](CC(=O)O)NC(=O)COCCOCCNC(=O)COCCOCCNC(=O)CC[C@H](NC(=O)CCCCCCCCCCCCCCCCC(=O)O)C(=O)O)C(=O)N[C@@H](CC(=O)O)C(=O)N[C@@H](Cc1ccccc1)C(N)=O ({C18 diacid-γGlu-AEEA-AEEA}-D[sY]L[βAla]W[Nle]DF-NH2) |
| 0.631 | 0.11 | 2.14 | 0.794 |  |  |  |  | CCCC[C@H](NC(=O)[C@H](Cc1ccc(OS(=O)(=O)O)cc1)NC(=O)[C@H](CC(=O)O)NC(=O)COCCOCCNC(=O)COCCOCCNC(=O)CC[C@H](NC(=O)CCCCCCCCCCCCCCCCC(=O)O)C(=O)O)C(=O)NCC(=O)N[C@@H](Cc1c[nH]c2ccccc12)C(=O)N[C@H](C(=O)N[C@@H](CC(=O)O)C(=O)N[C@@H](Cc1ccccc1)C(N)=O)[C@@H](C)CC ({C18 diacid-γGlu-AEEA-AEEA}-D[sY][Nle]GWIDF-NH2) |
| > 1000 | 0.115 | > 10000 | 0.479 |  |  |  |  | CCCC[C@H](NC(=O)[C@H](Cc1ccc(OS(=O)(=O)O)cc1)NC(=O)[C@H](CC(=O)O)NC(=O)COCCOCCNC(=O)COCCOCCNC(=O)CC[C@H](NC(=O)CCCCCCCCCCCCCCCCC(=O)O)C(=O)O)C(=O)NCC(=O)N[C@@H](Cc1c[nH]c2ccccc12)C(=O)N[C@@H](CCCCNC(=O)Nc1ccccc1C)C(=O)N(C)[C@@H](CC(=O)O)C(=O)N(C)[C@@H](Cc1ccccc1)C(N)=O ({C18 diacid-γGlu-AEEA-AEEA}-D[sY][Nle]GWK([CO-NH(2-Me-phenyl)])[NMeD][NMeF]-NH2) |
| 0.417 | 0.162 | 2.04 | 0.933 |  |  |  |  | CCCC[C@H](NC(=O)[C@H](Cc1ccc(OS(=O)(=O)O)cc1)NC(=O)[C@H](CC(=O)O)NC(=O)COCCOCCNC(=O)COCCOCCNC(=O)CC[C@H](NC(=O)CCCCCCCCCCCCCCCCC(=O)O)C(=O)O)C(=O)NCC(=O)N[C@@H](Cc1c[nH]c2ccccc12)C(=O)N[C@@H](CCC(N)=O)C(=O)N[C@@H](CC(=O)O)C(=O)N[C@@H](Cc1ccccc1)C(N)=O ({C18 diacid-γGlu-AEEA-AEEA}-D[sY][Nle]GWQDF-NH2) |
